Results from patent publication US12187759B2, “TLR7 agonists” (Primmune Therapeutics, Inc., priority 2019, dated 2025).
Where two headings read alike, the source gives them in different places.

Assays:
[1] = system: hPBMCs (Human Peripheral Blood Mononuclear Cells); test: Induction of interferon-α in hPBMCs in vitro; assay type: cell-based; conditions: for Emax / minimal effective concentration: Homo sapiens, PBMC; for Emax: 24 h, peak IFNα2a as percentage of peak response of standard 2-Amino-7-(cyclopropylmethyl)-9-B-D-xylofuranosyl-7,9-dihydro-1H-purine-6,8-dione, averaged across donors, read-out: IFNrmax, Relative Maximal IFNα2a Production (%); for minimal effective concentration: minimal effective concentration for interferon-α production (generally at least 80 pg/ml above baseline), geometric mean across at least three donors, 24 hours, read-out: Weighted MEC; for Donor 1 MEC / Donor 2 MEC / Donor 3 MEC: interferon-α production; for Donor 1 IFNmax / Donor 2 IFNmax / Donor 3 IFNmax: maximum IFN at any concentration of the evaluated range
Experimental: Treatment of hPBMCs with a TLR7 agonist typically induces some production of interferon-α as well as lesser amounts of a variety of other cytokines and chemokines. A typical experiment uses hPBMCs isolated from a healthy donor and placed in replicate cell culture wells; typically 1.0-7.5×10^6 cells are placed in each well. A test compound is added and the cells are cultured for 24 hours at 37° C. in a humidified atmosphere containing 5% CO2 post-addition; untreated controls are included. Secreted interferon-α production is measured using an a multisubtype interferon-α ELISA kit like those from PBL Assay Sciences or specifically as IFNα2a as part of a panel of cytokines and chemokines using luminex methodologies.
The minimal effective concentration (MEC) is the minimum concentration in a dose response curve where a significant increase in interferon-α production (generally at least 80 pg/ml) is observed above baseline. MEC values for each compound are determined for at least three donors. The weighted MEC for each compound is the geometric mean of all individual MECs across all donors. Concentrations tested typically consist of a two-fold dilution series starting at 100 μM. In the calculation of weighted MEC, any individual MEC value greater the highest concentration tested is arbitrarily set to two times the highest concentration tested unless all MECs for a compound exceed this value. The maximal amount of IFNα2a for each donor is determined from dose dependence for each compound.
In order to normalize for variation in each hPBMC preparation, these values are first transformed by expressing as a percentage of peak response measured with a standard (2-Amino-7-(cyclopropylmethyl)-9-B-D-xylofuranosyl-7,9-dihydro-1H-purine-6,8-dione) and then averaging the results across all donors, this average referred to as IFNrmax.
IFNmax is the maximum amount of IFN observed at any concentration across the evaluated concentration range. MEC and IFNmax values for three select compound are shown for three donors (Table 3). The range of tested concentrations were 0.625-5 μM for Imiquimod, 3.125-100 μM for both Compound A and Compound 1, 12.5-100 μM for Compound 2.

[2] = molecular target: T1, human TLR7 (Homo sapiens, UniProt Q9NYK1); test: TLR7 reporter cell assay (HEK293 cells stably expressing human TLR7 with NF-κB-driven SEAP reporter); assay type: cell-based; conditions: for EC50: fit of SEAP dose response, ymax from 28.5 μM resiquimod
T1 construct: host or cells: HEK293
T1 sequence (Q9NYK1 27-1049): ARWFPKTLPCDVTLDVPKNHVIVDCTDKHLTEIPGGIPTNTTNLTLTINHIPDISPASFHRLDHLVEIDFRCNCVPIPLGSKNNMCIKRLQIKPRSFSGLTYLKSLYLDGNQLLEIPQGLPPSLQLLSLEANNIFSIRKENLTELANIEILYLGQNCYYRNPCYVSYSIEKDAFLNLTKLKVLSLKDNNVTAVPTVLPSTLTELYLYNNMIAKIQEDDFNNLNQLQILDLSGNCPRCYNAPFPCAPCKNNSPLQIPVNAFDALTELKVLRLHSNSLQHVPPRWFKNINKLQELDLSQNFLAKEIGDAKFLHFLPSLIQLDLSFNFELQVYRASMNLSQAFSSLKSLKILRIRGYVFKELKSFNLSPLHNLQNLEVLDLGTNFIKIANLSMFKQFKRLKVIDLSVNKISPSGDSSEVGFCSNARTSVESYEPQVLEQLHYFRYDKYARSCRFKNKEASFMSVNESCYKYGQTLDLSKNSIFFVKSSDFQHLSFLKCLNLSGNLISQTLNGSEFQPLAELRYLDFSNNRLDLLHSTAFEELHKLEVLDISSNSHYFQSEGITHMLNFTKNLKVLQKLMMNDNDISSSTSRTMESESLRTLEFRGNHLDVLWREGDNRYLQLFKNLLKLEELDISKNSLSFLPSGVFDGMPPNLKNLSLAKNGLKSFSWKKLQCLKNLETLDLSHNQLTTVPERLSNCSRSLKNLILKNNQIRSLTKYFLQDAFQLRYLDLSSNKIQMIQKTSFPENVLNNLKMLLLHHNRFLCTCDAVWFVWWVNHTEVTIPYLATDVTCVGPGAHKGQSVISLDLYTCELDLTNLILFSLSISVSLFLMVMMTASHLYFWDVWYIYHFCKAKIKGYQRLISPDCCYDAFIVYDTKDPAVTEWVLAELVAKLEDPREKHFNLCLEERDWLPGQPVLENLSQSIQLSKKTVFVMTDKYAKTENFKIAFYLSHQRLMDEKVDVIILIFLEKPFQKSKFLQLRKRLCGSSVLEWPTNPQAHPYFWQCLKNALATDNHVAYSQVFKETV
Source text: The engagement of TLRs by cognate ligands triggers downstream signaling cascades, leading to the activation of NF-κB and other transcription factors which initiate various immunomodulatory effects. The human embryonic kidney cell line, HEK293, is essentially non-responsive to TLR agonists, but ectopic expression of TLRs in these cells allows cognate agonists to activate endogenous NF-κB. Accordingly, the HEK293-TLR-NF-κB inducible reporter system is used to assay TLR agonists.
HEK293 cell lines stably expressing human TLR7 or TLR8 together with an NF-κB-driven-secreted alkaline phosphatase (SEAP) reporter were invented at InvivoGen (San Diego, California, USA) and used to assess compounds of the present invention for TLR7 and TLR8 agonist activities. Cells were seeded at 2-5×10^4 cells/well in 96 well plates (200 μl/well) and treated with various concentrations of compound (10 μl) for 15-24 hours. SEAP activity was determined by measuring OD at 650 nm; the media used to culture the cell lines contains the reagents required for SEAP detection. The EC50 values in Table 1 are calculated from fitting the dose response of measured SEAP activity for each compound to the following equation: Y=ymax*c^nh/(EC50^nh+c^nh)+blank where Y is the experimentally measured OD650 at concentration c of test article, blank is the observed OD650 in the absence of TLR7 agonist, ymax is the difference between the measured OD650 in the presence of 28.5 μM resiquimod and the blank and values of EC50 and nh are determined by nonlinear least squares analysis. Resiquimod is a known TLR7 and TLR8 agonist.
Compound A is 5-amino-3-((2R,3R,5S)-3-hydroxy-5-((S)-1-hydroxypropyl)tetrahydrofuran-2-yl)thiazolo[4,5-d]pyrimidine-2,7(3H,6H)-dione)

[3] = HEK293, 500 μM compound, SEAP activity (OD 650 nm) relative to 28.5 μM resiquimod, 15-24 hours, read-out: Response at 500 μM Compound as a Percent of Resiquimod Response
[4] = HEK293, read-out: Response at 500 μM Compound as a Percent of Resiquimod Response

Row | Emax at 500 µM [2, 3] | SMILES | Emax [1] | minimal effective concentration [1] | EC50 ([2]; 15-24 hours) | Emax at 500 µM [2, 4] | also measured
1 | 91% | C#CC[C@H](O)[C@@H]1C[C@@H](O)[C@H](n2c(=O)n(CC#C)c3c(=O)[nH]c(N)nc32)O1 [Compound 35, 2-Amino-9-((2R,3R,5S)-3-hydroxy-5-((S)-1-hydroxybut-3-yn-1-yl)tetrahydrofuran-2-yl)-7-(prop-2-yn-1-yl)-7,9-dihydro-1H-purine-6,8-dione] | 207% | 3.1 µM | 114 µM |  | 
2 | 52% | C#CCn1c(=O)n([C@@H]2O[C@H]([C@@H](O)CF)C[C@H]2O)c2nc(N)[nH]c(=O)c21 [Compound 24, 2-Amino-9-((2R,3R,5S)-5-((R)-2-fluoro-1-hydroxyethyl)-3-hydroxytetrahydrofuran-2-yl)-7-(prop-2-yn-1-yl)-7,9-dihydro-1H-purine-6,8-dione] | 205% | 12.5 µM | 327 µM |  | 
3 | 30% | CC[C@H](O)[C@H]1O[C@@H](n2c(=O)n(CCSC)c3c(=O)[nH]c(N)nc32)[C@H](O)[C@H]1F [Compound 46, 2-Amino-9-((2R,3S,4R,5R)-4-fluoro-3-hydroxy-5-((S)-1-hydroxypropyl)tetrahydrofuran-2-yl)-7-(2-(methylthio)ethyl)-7,9-dihydro-1H-purine-6,8-dione] | 317% | 3.1 µM | > 500 µM |  | 
4 | < 5% | C#CCn1c(=O)n([C@@H]2O[C@H](C(=O)NC)C[C@H]2O)c2nc(N)[nH]c(=O)c21 [Compound 42, (2S,4R,5R)-5-(2-Amino-6,8-dioxo-7-(prop-2-yn-1-yl)-1,6,7,8-tetrahydro-9H-purin-9-yl)-4-hydroxy-N-methyltetrahydrofuran-2-carboxamide] | ≤ 10% | > 50 µM |  |  | 
5 |  | CC(C)Cn1cnc2c(N)nc3ccccc3c21 [Imiquimod, reference compound] |  |  |  |  | Donor 1 MEC [1]: 5 µM; Donor 1 IFNmax [1]: 793 pg/mL; Donor 2 MEC [1]: 5 µM; Donor 2 IFNmax [1]: 193 pg/mL; Donor 3 MEC [1]: 1.25 µM; Donor 3 IFNmax [1]: 1350 pg/mL
6 |  | C#CCn1c(=O)n([C@@H]2O[C@H]([C@H](O)CC)C[C@H]2O)c2nc(N)[nH]c(=O)c21 [Compound 2, 2-amino-9-((2R,3R,5S)-3-hydroxy-5-((R)-1-hydroxypropyl)tetrahydrofuran-2-yl)-7-(prop-2-yn-1-yl)-7,9-dihydro-1H-purine-6,8-dione] |  |  |  | < 5% | Donor 1 MEC [1]: 50 µM; Donor 1 IFNmax [1]: 4523 pg/mL; Donor 2 MEC [1]: >100 µM; Donor 2 IFNmax [1]: 9 pg/mL; Donor 3 MEC [1]: 100 µM; Donor 3 IFNmax [1]: 3110 pg/mL
7 |  | C#CCn1c(=O)n([C@@H]2O[C@H]([C@H](O)C(F)(F)F)C[C@H]2O)c2nc(N)[nH]c(=O)c21 [Compound 11, 2-Amino-9-((2R,3R,5S)-3-hydroxy-5-((S)-2,2,2-trifluoro-1-hydroxyethyl)tetrahydrofuran-2-yl)-7-(prop-2-yn-1-yl)-7,9-dihydro-1H-purine-6,8-dione] |  |  |  | < 5% | 
8 |  | C#CCn1c(=O)n([C@@H]2O[C@H](CO)[C@@H](F)[C@H]2O)c2nc(N)[nH]c(=O)c21 [Compound B, 2-Amino-9-((2R,3S,4S,5R)-4-fluoro-3-hydroxy-5-(hydroxymethyl)tetrahydrofuran-2-yl)-7-(prop-2-yn-1-yl)-7,9-dihydro-1H-purine-6,8-dione, reference compound] | 260% | 17.9 µM |  |  | 
9 |  | C=C=Cn1c(=O)n([C@@H]2O[C@H]([C@H](O)CC)C[C@H]2O)c2nc(N)[nH]c(=O)c21 [Compound 3, 2-amino-9-((2R,3R,5S)-3-hydroxy-5-((R)-1-hydroxypropyl)tetrahydrofuran-2-yl)-7-(propa-1,2-dien-1-yl)-7,9-dihydro-1H-purine-6,8-dione] |  |  |  | < 5% | 
10 |  | C#CCn1c(=O)n([C@@H]2O[C@H]([C@@H](O)C(F)(F)F)C[C@H]2O)c2nc(N)[nH]c(=O)c21 [Compound 10, 2-Amino-9-((2R,3R,5S)-3-hydroxy-5-((R)-2,2,2-trifluoro-1-hydroxyethyl)tetrahydrofuran-2-yl)-7-(prop-2-yn-1-yl)-7,9-dihydro-1H-purine-6,8-dione] |  |  | 311 µM | 72% | 
11 |  | C#CCn1c(=O)n([C@@H]2O[C@@H](C(=O)CC)C[C@H]2O)c2nc(N)[nH]c(=O)c21 [Compound 38, 2-Amino-9-((2R,3R,5R)-3-hydroxy-5-propionyltetrahydrofuran-2-yl)-7-(prop-2-yn-1-yl)-7,9-dihydro-1H-purine-6,8-dione] |  |  |  | < 5% | 
12 |  | C#CCn1c(=O)n([C@@H]2O[C@H]([C@H](O)CC)[C@H](F)[C@H]2O)c2nc(N)[nH]c(=O)c21 [Compound 12, 2-Amino-9-((2R,3S,4R,5R)-4-fluoro-3-hydroxy-5-((R)-1-hydroxypropyl)tetrahydrofuran-2-yl)-7-(prop-2-yn-1-yl)-7,9-dihydro-1H-purine-6,8-dione] |  |  | > 500 µM | 6% | 
13 |  | C#CCn1c(=O)n([C@@H]2O[C@H](C(=O)CC)C[C@H]2O)c2nc(N)[nH]c(=O)c21 [Compound 37, 2-Amino-9-((2R,3R,5S)-3-hydroxy-5-propionyltetrahydrofuran-2-yl)-7-(prop-2-yn-1-yl)-7,9-dihydro-1H-purine-6,8-dione] |  |  | 462 µM | 40% | 
